Earlier results, collected in patent publication US20240299549A1, “STABLE FORMULATIONS OF INDOCYANINE GREEN” (PROVEPHARM LIFE SOLUTIONS, priority 2021, published 2024).

What was measured:
[1] = stored at 4° C. in the dark, three days
[2] = 10 hours of storage in water and direct light

For `CC1(C)C(/C=C/C=C/C=C/C=C2\N(CCCCS(=O)(=O)[O-])c3ccc4ccccc4c3C2(C)C)=[N+](CCCCS(=O)(=O)[O-])c2ccc3ccccc3c21.[Na+]` [ICG, Indocyanine green], the fluorescence intensity lost [1] is listed as 20% and the “reduction of absorbance at spectral peak” value [2] is listed as 10%.
